Where two headings read alike, the source gives them in different places.
Legend:
[1] = target: GDP-bound NRAS wild-type protein (Homo sapiens, UniProt P01111); assay: Binding to NRAS by surface plasmon resonance (SPR), KD and KD ratio to KRAS
Method in brief: (§1)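 SPR, 30°C: Avi-biotin RAS·GDP captured via Biotin CAPture (~100–300 RU); running buffer HBS pH 7.4, 1 mM DTT, 10 mM MgCl2, 0.01% Tween 20, 10 µM GDP, 4% DMSO. Single-cycle kinetics, 100 µL/min, 75 s injections; 1:1 model → KD.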

[2] = target: GDP-bound KRAS wild-type protein (Homo sapiens, UniProt P01116); assay: Binding to KRAS by surface plasmon resonance (SPR), dissociation constant KD
Method in brief: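 GDP-bound biotin-Avi RAS captured at ~100–300 RU, 30°C, pH 7.4 HBS containing 10 µM GDP, 10 mM MgCl2, 1 mM DTT, 0.01% Tween 20 and 4% DMSO. KD by 1:1 fitting.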

HRAS wild-type protein = HRAS wild-type protein (Homo sapiens, UniProt P01112); assay: Binding to HRAS by surface plasmon resonance (SPR), KD and KD ratio to KRAS
Method in brief: as §1

[3] = tested on: human lung cancer strain NCI-H441; assay: NCI-H441 cell proliferation inhibitory activity (CellTiter-Glo, 4 days); format: cell-based; details: read-out: NCl-H441 IC50
Method in brief: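 Proliferation was scored by […] measured after the reagent was added to cultures kept at 37°C in 5% carbon dioxide.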

[4] = ratio of KD with respect to GDP-bound NRAS wild-type protein to KD with respect to KRAS
[5] = Single Cycle Kinetics, 1:1 binding model
[6] = ratio of KD with respect to HRAS wild-type protein to KD with respect to KRAS
[7] = 50% proliferation inhibitory concentration, four days
[8] = ratio of KD for GDP-bound NRAS wild-type protein to KD for KRAS
[9] = ratio of KD for HRAS wild-type protein to KD for KRAS

Chain of GDP-bound NRAS wild-type protein (P01111 whole entry): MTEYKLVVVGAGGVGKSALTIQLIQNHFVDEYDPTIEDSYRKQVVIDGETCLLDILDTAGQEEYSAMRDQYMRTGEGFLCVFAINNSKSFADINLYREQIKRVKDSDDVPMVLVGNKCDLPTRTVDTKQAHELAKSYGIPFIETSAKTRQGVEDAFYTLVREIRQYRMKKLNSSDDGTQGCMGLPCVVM
Chain of GDP-bound KRAS wild-type protein (P01116 1-188 isoform P01116-2): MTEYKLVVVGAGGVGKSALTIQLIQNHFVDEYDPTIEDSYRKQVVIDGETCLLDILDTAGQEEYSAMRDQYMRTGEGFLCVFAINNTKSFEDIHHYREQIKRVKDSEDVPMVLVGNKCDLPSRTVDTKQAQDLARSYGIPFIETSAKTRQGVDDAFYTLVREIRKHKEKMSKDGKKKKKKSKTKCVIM
Chain of HRAS wild-type protein (P01112 whole entry): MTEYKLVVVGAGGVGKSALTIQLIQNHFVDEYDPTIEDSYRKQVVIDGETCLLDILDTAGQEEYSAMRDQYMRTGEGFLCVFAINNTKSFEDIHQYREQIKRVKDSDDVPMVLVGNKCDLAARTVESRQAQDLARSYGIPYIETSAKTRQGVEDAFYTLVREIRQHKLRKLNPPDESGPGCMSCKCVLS

SMILES | NRAS /KRAS [1, 4] | Kd [2, 5] [nM] | HRAS /KRAS (HRAS wild-type protein; [6]) | IC50 [3, 7] [nM] | NRAS /KRAS [1, 8] | Kd ([2]; 1:1 binding model) [nM] | HRAS /KRAS (HRAS wild-type protein; [9]) | IC50 ([3]; NCI-H441 cells, 4 days) [nM] | Kd ([2]; Single Cycle Kinetics) [nM]
CCO[C@@H]1C[C@H]2C(=O)NC3(CCC3)C(=O)N(C)[C@@H](C3CCCC3)C(=O)N(C)[C@H](C(=O)N3CCOCC3)CC(=O)N(C)[C@@H](CC(F)F)C(=O)N[C@@H]([C@@H](C)CC)C(=O)N(C)CC(=O)N(C)[C@H]3CCCCCN(C3=O)[C@@H](Cc3ccc(F)cc3)C(=O)N(C)CC(=O)N[C@@H](CCc3cc(F)c(C(F)(F)F)c(F)c3)C(=O)N2C1 [PP1177] | B (a compound having 3 or more and less than 10 is denoted as B) | 0.081 | B (a compound having 3 or more and less than 10 is denoted as B) | 32.5 | – | – | – | – | –
CCCOC[C@H]1C(=O)N[C@@H]([C@@H](C)CC)C(=O)N(C)CC(=O)N(C)[C@H]2C/C=C\CCN(C2=O)[C@@H](Cc2ccc(C)cc2)C(=O)N(C)CC(=O)N[C@@H](CCc2ccc(C(F)(F)F)c(OC)c2)C(=O)N2C[C@@H](C)C[C@H]2C(=O)NC2(CC(C)(C)C2)C(=O)N(C)[C@@H](C2CCCC2)C(=O)N(C)[C@H](C(=O)N(C)CC)CC(=O)N1C [PP2461] | – | – | – | – | A (a compound having 10 or more and less than 20 is denoted as A) | 0.15 | A (a compound having 10 or more and less than 20 is denoted as A) | 10.6 | –
CCO[C@@H]1C[C@H]2C(=O)NC3(CC(C)(C)C3)C(=O)N(C)[C@@H](C3CCCC3)C(=O)N(C)[C@H](C(=O)N(C)CC)CC(=O)N(C)[C@@H]([C@@H](C)OC)C(=O)N[C@@H]([C@@H](C)CC)C(=O)N3CCC[C@H]3C(=O)N(C)[C@H]3C/C=C\CCN(C3=O)[C@@H](Cc3ccc(C(F)(F)F)cc3)C(=O)N(C)CC(=O)N[C@@H](CCc3ccc(C(F)(F)F)c(OC)c3)C(=O)N2C1 [PP3170] | – | – | – | – | A (a compound having 10 or more and less than 20 is denoted as A) | – | A (a compound having 10 or more and less than 20 is denoted as A) | 42.5 | 0.84
CCC[C@H]1C(=O)N[C@@H](CC(C)C)C(=O)N(CC)CC(=O)N(C)[C@H]2C/C=C\CCN(C2=O)[C@@H](Cc2ccc(C)cc2)C(=O)N(C)CC(=O)N[C@@H](CCc2ccc(C(F)(F)F)c(Cl)c2)C(=O)N2C[C@H](OCC)C[C@H]2C(=O)NC2(CCC2)C(=O)N(C)[C@@H](C2CCCC2)C(=O)N(C)[C@H](C(=O)N(C)C)CC(=O)N1C [PP2545] | – | – | – | – | A (a compound having 10 or more and less than 20 is denoted as A) | 4.3 | A (a compound having 10 or more and less than 20 is denoted as A) | 279 | –
CCC[C@H]1C(=O)N[C@@H]([C@@H](C)CC)C(=O)N(C)CC(=O)N(C)[C@H]2C/C=C\CCN(C2=O)[C@@H](Cc2ccc(C(F)(F)F)cc2)C(=O)N(C)CC(=O)N[C@@H](CCc2ccc(Cl)c(Cl)c2)C(=O)N2C[C@H](OCC)C[C@H]2C(=O)NC2(CC(C)(C)C2)C(=O)N(C)[C@@H](CC(C)(C)C)C(=O)N(C)[C@H](C(=O)N(C)C)CC(=O)N1C [PP2738] | – | – | – | – | AA (a compound having 20 or more is denoted as AA) | 0.17 | A (a compound having 10 or more and less than 20 is denoted as A) | 8.5 | –
CCO[C@@H]1C[C@H]2C(=O)NC3(CCC3)C(=O)N(C)[C@@H](C3CCCC3)C(=O)N(C)[C@H](C(=O)N(C)C)CC(=O)N(C)[C@@H](CC(C)(C)C)C(=O)N[C@@H]([C@@H](C)CC)C(=O)N(C)CC(=O)N(C)[C@H]3C/C=C\CCN(C3=O)[C@@H](CC3CCCCC3)C(=O)N(C)CC(=O)N[C@@H](CCc3cc(F)c(C(F)(F)F)c(F)c3)C(=O)N2C1 [PP1474] | A (a compound having 10 or more and less than 20 is denoted as A) | 0.23 | A (a compound having 10 or more and less than 20 is denoted as A) | 48.2 | – | – | – | – | –
CCCOC[C@H]1C(=O)N[C@@H]([C@@H](C)CC)C(=O)N(CCC)CC(=O)N(C)[C@H]2C/C=C\CCN(C2=O)[C@@H](Cc2ccc(C(F)F)cc2)C(=O)N(C)CC(=O)N[C@@H](CCc2cc(F)c(C(F)(F)F)c(F)c2)C(=O)N2C[C@H](OC3CCC3)C[C@H]2C(=O)N(C)C2(CCC2)C(=O)N(C)[C@@H](C(CC)CC)C(=O)N(C)[C@H](C(=O)N(C)C)CC(=O)N1C [PP3502] | – | – | – | – | AA (a compound having 20 or more is denoted as AA) | – | A (a compound having 10 or more and less than 20 is denoted as A) | 22.4 | 0.5
CCO[C@@H]1C[C@H]2C(=O)NC3(CC(C)(C)C3)C(=O)N(C)[C@@H](C(CC)CC)C(=O)N(C)[C@H](C(=O)N(C)C)CC(=O)N(C)[C@@H](COC)C(=O)N[C@@H]([C@@H](C)CC)C(=O)N(C)CC(=O)N(C)[C@H]3C/C=C\CCN(C3=O)[C@@H](CC3CCC(F)(F)CC3)C(=O)N(C)CC(=O)N[C@@H](CCc3cc(F)c(C(F)(F)F)c(F)c3)C(=O)N2C1 [PP2440] | – | – | – | – | A (a compound having 10 or more and less than 20 is denoted as A) | 0.44 | A (a compound having 10 or more and less than 20 is denoted as A) | 20.1 | –
CCC[C@H]1C(=O)N[C@@H](C2CCCC2)C(=O)N(C)CC(=O)N(C)[C@H]2C/C=C\CCN(C2=O)[C@@H](Cc2ccc(C(F)(F)F)cc2)C(=O)N(C)CC(=O)N[C@@H](CCc2cc(F)c(C(F)(F)F)c(F)c2)C(=O)N2CC3(CC3)C[C@H]2C(=O)N(C)C2(CCC2)C(=O)N(C)[C@@H](C(CC)CC)C(=O)N(C)[C@H](C(=O)N(C)C)CC(=O)N1C [PP3305] | – | – | – | – | AA (a compound having 20 or more is denoted as AA) | – | A (a compound having 10 or more and less than 20 is denoted as A) | 20.3 | 0.68
CCC[C@H]1C(=O)N[C@@H]([C@@H](C)CC)C(=O)N(C)CC(=O)N(C)[C@H]2C/C=C\CCN(C2=O)[C@@H](CC2CCCCC2)C(=O)N(C)CC(=O)N[C@@H](CCc2ccc(C(F)(F)F)c(OC)c2)C(=O)N2C[C@@H](C)C[C@H]2C(=O)N(C)C2(CCC2)C(=O)N(C)[C@@H](C2CCCC2)C(=O)N(C)[C@H](C(=O)N(C)C)CC(=O)N1C [PP2370] | – | – | – | – | B (a compound having 3 or more and less than 10 is denoted as B) | 0.54 | B (a compound having 3 or more and less than 10 is denoted as B) | 25.7 | –
CCO[C@@H]1C[C@H]2C(=O)OC3(CCC3)C(=O)N(C)[C@@H](C3CCCC3)C(=O)N(C)[C@H](C(=O)N(C)C)CC(=O)N(C)[C@@H](CC(C)C)C(=O)N[C@@H]([C@@H](C)CC)C(=O)N3CCC[C@H]3C(=O)N(C)[C@H]3C/C=C\CCN(C3=O)[C@@H](Cc3ccc(C(F)(F)F)cc3)C(=O)N(C)CC(=O)N[C@@H](CCc3ccc(C(F)(F)F)c(OC)c3)C(=O)N2C1 [PP3362] | – | – | – | – | A (a compound having 10 or more and less than 20 is denoted as A) | – | A (a compound having 10 or more and less than 20 is denoted as A) | 34.3 | 0.84
CCC[C@H]1C(=O)N[C@@H](CC(C)C)C(=O)N(CC)CC(=O)N(C)[C@H]2C/C=C\CCN(C2=O)[C@@H](Cc2ccc(C)cc2)C(=O)N(C)CC(=O)N[C@@H](CCc2cc(F)c(C(F)(F)F)c(F)c2)C(=O)N2C[C@H](OCC)C[C@H]2C(=O)NC2(CC(C)(C)C2)C(=O)N(C)[C@@H](C2CCCC2)C(=O)N(C)[C@H](C(=O)N(C)C)CC(=O)N1C [PP2516] | – | – | – | – | A (a compound having 10 or more and less than 20 is denoted as A) | 2.9 | B (a compound having 3 or more and less than 10 is denoted as B) | 124 | –
